How the values were obtained:
[1] = Autoclaving of N-butylglucamine reaction solution, HPLC comparison before and after; assay type: physicochemical; settings: 5% (weight/volume) solution, 20 mM MgSO4, pH 5.0; 121° C., 30 P.S.I., 30 minutes
Description: The reaction solution can also be sterilized by autoclaving, as described below. A 5% (weight/volume) solution of N-butylglucamine containing 20 mM MgSO4, at pH 5.0, was autoclaved in a 500 ml shake flask with a silicon closure in place. The conditions for autoclaving were 121° C., 30 P.S.I., for 30 minutes. The pH was checked afterwards and found to be 5.0 at room temperature. There was no visible change in the color or the clarity of the solution, an indication that no caramelization or precipitation had occurred. […] Controls (not autoclaved) indicated at least 90% conversion at 48 hours, also. Autoclaving can therefore be used as a method for sterilizing the reaction solution.

[2] = cited from earlier work

stability of solution to autoclaving (HPLC before vs after) [1] | SMILES | exposure concentration producing nose and throat irritation ([2]; exposure to as little as) | hazard description per Material Safety Data Sheets ([2]; supplier MSDS (Fisher Scientific))
the same | CCCCNC[C@H](O)[C@@H](O)[C@H](O)[C@H](O)CO [N-butylglucamine] |  | 
 | CCCCN [N-n-butylamine] | 5-10 ppm | toxic and a severe eye, skin and mucous membrane irritant
